Tests used:
[1] = target: T1, native hexose oxidase from Chondrus crispus (Chondrus crispus, UniProt P93762); conditions: literature data; cited from earlier work
T1 sequence (P93762 1-546): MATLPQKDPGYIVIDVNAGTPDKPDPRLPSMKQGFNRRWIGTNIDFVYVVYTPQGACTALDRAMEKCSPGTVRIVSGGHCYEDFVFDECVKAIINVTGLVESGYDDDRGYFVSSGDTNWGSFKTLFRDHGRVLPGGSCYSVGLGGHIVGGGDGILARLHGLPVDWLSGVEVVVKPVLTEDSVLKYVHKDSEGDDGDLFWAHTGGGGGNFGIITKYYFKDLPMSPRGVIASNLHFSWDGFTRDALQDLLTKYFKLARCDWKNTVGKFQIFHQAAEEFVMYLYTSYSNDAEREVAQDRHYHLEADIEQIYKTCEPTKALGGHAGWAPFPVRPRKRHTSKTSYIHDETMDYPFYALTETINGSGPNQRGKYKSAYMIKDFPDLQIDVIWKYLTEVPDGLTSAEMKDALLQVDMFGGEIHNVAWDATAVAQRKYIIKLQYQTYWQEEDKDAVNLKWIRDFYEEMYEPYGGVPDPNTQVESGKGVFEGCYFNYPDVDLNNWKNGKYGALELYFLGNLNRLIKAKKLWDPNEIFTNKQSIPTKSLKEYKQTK

[2] = target: T2, recombinant hexose oxidase from Pichia pastoris (Chondrus crispus, UniProt P93762); assay: Substrate specificity of recombinant hexose oxidase (o-dianisidine/peroxidase assay); type: biochemical; conditions: sugar at a final concentration of 0.1 M; recombinant hexose oxidase expressed in Pichia pastoris
T2 construct: the entire hexose oxidase gene was amplified and isolated from at least three independent PCR amplifications; made in house; host or cells: Pichia pastoris KM71 with plasmid pUPO153 (pPIC3 vector), intracellular
T2 sequence (P93762 4-337 limits assumed): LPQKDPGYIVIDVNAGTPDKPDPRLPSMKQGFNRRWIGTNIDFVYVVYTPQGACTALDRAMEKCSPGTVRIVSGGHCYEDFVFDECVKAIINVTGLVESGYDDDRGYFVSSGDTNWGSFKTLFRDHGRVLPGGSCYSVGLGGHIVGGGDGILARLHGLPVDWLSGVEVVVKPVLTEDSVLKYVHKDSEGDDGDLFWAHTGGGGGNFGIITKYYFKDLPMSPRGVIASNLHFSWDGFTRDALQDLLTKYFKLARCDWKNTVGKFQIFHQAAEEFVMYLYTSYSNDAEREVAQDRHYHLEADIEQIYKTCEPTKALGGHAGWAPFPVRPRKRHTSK
T2 sequence (P93762 338-546 limits assumed): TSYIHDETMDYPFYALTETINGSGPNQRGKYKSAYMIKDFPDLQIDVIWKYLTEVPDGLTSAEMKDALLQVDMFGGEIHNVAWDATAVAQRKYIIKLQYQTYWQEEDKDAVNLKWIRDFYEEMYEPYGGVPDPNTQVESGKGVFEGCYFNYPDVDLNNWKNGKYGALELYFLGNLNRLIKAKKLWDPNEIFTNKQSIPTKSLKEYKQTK
Protocol: (§1) The procedure used was essentially as described by Sullivan and Ikawa, 1973. This assay is based on the principle that the hydrogen peroxide formed in the oxidation of the sugar in the presence of peroxidase reacts with the chromogenic substance, o-dianisidine to form a dye with absorbance at 402 nm.
(§2) The assay mixture consisted of 1-40 μl of enzyme sample and 850 μl of an assay solution containing 370 μl of 0.1 M sodium phosphate buffer, pH 7.0; 462 μl of 0.1 M D-glucose in 0.1 M sodium phosphate buffer, pH 7.0; 9 μl of horse radish peroxidase, 0.1 mg/ml in water (Sigma Chemicals, cat. no. P 6782 or Boehringer Mannheim, cat. no. 814 393); and 9 μl of o-dianisidine.2HCl, 3.0 mg/ml in water (3,3′-dimethoxybenzidine, Sigma Chemicals). After incubation at room temperature for 15 or 30 minutes the assay was stopped by addition of one drop of 37% HCl (Merck, p.a.). Samples of 100 μl were transferred from the assay tubes to the wells of a microtiter plate (NUNC, Denmark) and the absorbance at 410 nm was read on a Titertek Multiskan II PLUS plate reader (Labsystems/Flow Laboratories, Finland). To ensure that the observed activity was due to hexose oxidase—and not glucose oxidase—the assay was occasionally performed with D-galactose as the substrate instead of D-glucose.
(§3) The substrate specificity of recombinant hexose oxidase from Pichia pastoris and native hexose oxidase from Chondrus crispus was compared using a number of sugars at a final concentration of 0.1 M in the assay described above.

[3] = target: T3, native hexose oxidase from Chondrus crispus (Chondrus crispus, UniProt P93762); assay: Substrate specificity of native hexose oxidase (o-dianisidine/peroxidase assay); type: biochemical; conditions: sugar at a final concentration of 0.1 M
T3 construct: the native form isolated from Chondrus crispus; from tissue; host or cells: Chondrus crispus (red alga) fronds
T3 sequence (P93762 4-337 limits assumed): T2 sequence (P93762 4-337 limits assumed)
T3 sequence (P93762 338-546 limits assumed): T2 sequence (P93762 338-546 limits assumed)
Protocol: as §1, §2, §3

[4] = target: T4, hexose oxidase from Chondrus crispus (Chondrus crispus, UniProt P93762); conditions: reported by Sullivan and Ikawa (1973); cited from earlier work
T4 sequence (P93762 1-546): T1 sequence (P93762 1-546)

[5] = target: T3, native hexose oxidase from Chondrus crispus; assay: Inhibition of native hexose oxidase by sodium diethyldithiocarbamate; type: biochemical; conditions: read-out: Inhibition (%), Native enzyme
Protocol: as §1
as §2, with “D-glucose. […]” for “D-glucose.”

[6] = target: T2, recombinant hexose oxidase from Pichia pastoris; assay: Inhibition of recombinant hexose oxidase by sodium diethyldithiocarbamate; type: biochemical; conditions: read-out: Inhibition (%), Recombinant enzyme
Protocol: as §1
as §2, with “D-glucose. […]” for “D-glucose.”

SMILES | Relative rate, native enzyme, Sullivan and Ikawa, 1973 [1] | Relative rate, recombinant enzyme [2] | Relative rate, native enzyme, this work [3] | Inhibition of hexose oxidase (in words) [4] | inhibition at 10 µM [5] [%] | inhibition at 100 µM [5] [%] | inhibition at 10 µM ([6]; concentration of inhibitor 0.01 mM) [%] | inhibition at 100 µM ([6]; concentration of inhibitor 0.1 mM) [%]
O=C[C@H](O)[C@@H](O)[C@@H](O)[C@H](O)CO [D-Galactose] | 82 | 75 | 75 | – | – | – | – | –
OC[C@H]1O[C@@H](O[C@H]2[C@H](O)[C@@H](O)C(O)O[C@@H]2CO)[C@H](O)[C@@H](O)[C@H]1O (some centres unmarked) [Lactose] | 22 | 38 | 25 | – | – | – | – | –
O=C[C@H](O)[C@@H](O)[C@H](O)[C@H](O)CO [D-Glucose] | 100 | 100 | 100 | – | – | – | – | –
O=C[C@H](O)[C@@H](O)[C@H](O[C@@H]1O[C@H](CO)[C@@H](O)[C@H](O)[C@H]1O)[C@H](O)CO [Cellobiose] | 32 | 51 | 33 | – | – | – | – | –
CCN(CC)C(=S)[S-].[Na+] [sodium diethyldithiocarbamate] | – | – | – | strongly inhibited | 41 | 95 | 39 | 96
OC[C@H]1O[C@H](O[C@H]2[C@H](O)[C@@H](O)[C@H](O)O[C@@H]2CO)[C@H](O)[C@@H](O)[C@@H]1O [Maltose] | 40 | 57 | 37 | – | – | – | – | –

— patent US6924366B2, “Recombinant hexose oxidase, a method of producing same and use of such enzyme” (Bioteknologisk Institut, priority 1995, dated 2005)
